Test results as given in article PMC8548483, “Bioactive compounds from an endophytic fungi Nigrospora aurantiaca” (Botanical Studies, 2021).
Entries after “also recorded” stand apart in the source; their conditions may differ.

Legend:
Format in all cases: cell-based, murine
[1] = system: NO production in LPS-activated microglial BV-2 cells; assay: Inhibition of NO production in LPS-activated microglial BV-2 cells (Griess method); conditions: for Inhibitory effect on NO production (in words): LPS-activated BV-2 cells; for IC50: Mus musculus, LPS (150 ng/mL)-stimulated BV-2 cells, 15 min pretreatment, 24 h, mean ± SD (n = 3), read-out: IC50 (inhibitory effect on NO production)
Method: (§1) The murine BV-2 microglial cell line cultured followed the procedure of our previous reports (Hsiao et al. [2020]). In summary, BV-2 cells were cultured with DMEM containing Fetal Bovine Serum (FBS), streptomycin/penicillin, Lglutamine and HEPES at 37 °C, humidified 5% CO2. Prior to the study, BV-2 cells were cultured in FBS media (5%), pretreated with carrier media or various concentrations of compounds for 15 min, and eventually collected after 24 h of stimulation with LPS (150 ng/mL).
The level of nitric oxide (NO) metabolites from the production of activated BV-2 cells was measured with reference to the Griess method (Wang et al. [2018]).

[2] = Cell viability (MTT test) in BV-2 cells; conditions: mouse, BV-2 microglial cells, 24 h, MTT, mean ± SD (n = 3), read-out: Cell viabillity (%)
Method: as §1
(§2) As in our previous report, cellular viability was assessed using MTT test where BV-2 cells, along with other compounds were treated for 24 h (Hsiao et al. [2020]).

microglial BV-2 cells = assay: Cell viability (MTT test) in BV-2 cells; conditions: 10 µM
Method: as §1, §2

Row | Compound | IC50 [1] [µM] | Inhibitory effect on NO production (in words) [1] | viability at 24 h, 10 µM [2] [%] | Cytotoxicity against microglial BV-2 cells (in words) (microglial BV-2 cells)
1 | Cc1cc(O)c2c(c1)O[C@@]1(C)OC[C@H](C)C1C2 (stereo partly shown) [Compound 2, xyloketal K] | 30.1 ± 3 | weak inhibitory effects; also recorded: weak inhibitory activities | 98.3 ± 7.6 | no cytotoxic activity
2 | COc1cc(O)c2c(c1O)[C@@H](O)[C@@H]1C[C@](C)(O)[C@H](O)C[C@@H]1C2=O [Compound 5, xylanthraquinone] | 32.1 ± 6.7 | weak inhibitory effects; also recorded: weak inhibitory activities | 103 ± 6.9 | no cytotoxic activity
3 | CC(C)[C@@H](C)/C=C/[C@@H](C)[C@H]1CC[C@H]2C3=CC=C4C[C@@H](O)CC[C@]4(C)[C@H]3CC[C@]12C [Compound 6, ergosterol] | 7.2 ± 1.4 | potently inhibitory effects; also recorded: potential inhibitory activities; also recorded: considerable inhibitory effect | 90.8 ± 6.7 | no significant cytotoxic effect
4 | C/C=C/C=C(\CO)C(/C=C/C)CO (stereo not shown) [Compound 1, nigaurdiol] | 32.2 ± 3.3 | weak inhibitory effects; also recorded: weak inhibitory activities | 103 ± 8.8 | no cytotoxic activity
5 | COc1cc(/C=C/C(=O)CC(=O)/C=C/c2ccc(O)c(OC)c2)ccc1O [Curcumin, curcumin, reference compound] | 6 ± 0.3 |  |  | 

Further lines, with some results ahead:

Row | IC50 [1] [µM] | Compound | Inhibitory effect on NO production (in words) [1] | viability at 24 h, 10 µM [2] [%] | Cytotoxicity against microglial BV-2 cells (in words) (microglial BV-2 cells)
6 | 2.3 ± 0.3 | COC1=CC(=O)c2c(O)c3c(c(O)c2C1=O)C[C@](C)(O)[C@H](O)[C@H]3O [Compound 3, bostrycin] | potently inhibitory effects; also recorded: potential inhibitory activities | 10.7 ± 0.8 | significant cytotoxicity
7 | 2.5 ± 0.5 | COC1=CC(=O)c2c(O)c3c(c(O)c2C1=O)C[C@](C)(O)[C@H](O)C3 [Compound 4, deoxybostrycin] | potently inhibitory effects; also recorded: potential inhibitory activities | 11.3 ± 1.3 | significant cytotoxicity
